Common to all, as to assay type: cell-based
Assay [1] has as its system Staphylococcus aureus MRSA No. 17 (methicillin-resistant Staphylococcus aureus: MRSA). Description: MIC for Staphylococcus aureus MRSA No. 17. To be noted: read-out: MIC Straphyrococcus aureus MRSA No. 17 (MRSA).
The subject of assay [2] is Staphylococcus aureus Smith strain. As to the kind of experiment: MIC for Staphylococcus aureus Smith strain. Particulars: read-out: MIC Straphyrococcus aureus Smith.
Assay [3] concerns Enterococcus faecalis NCTC12201 strain (vancomycin-resistant Enterococcus: VRE). As to the kind of experiment: MIC for Enterococcus faecalis NCTC12201 strain (VRE). To be noted: read-out: MIC Enterococcus faecalis NCTC 12201 (VRE).
In assay [4] the test system is Clostridium perfringens PB6K strain. Description: microbe, parasite or virus in culture. To be noted: Clostridium perfringens, PB6KSTRAIN, read-out: MIC Clostridium perfringens PB6K, PB6K strain; CD medium, 37° C. overnight, 10% CO2-containing anaerobic conditions.
In assay [5] the test system is Escherichia coli BE1121 strain. As to the kind of experiment: MIC for Escherichia coli BE1121 strain. Particulars: Escherichia coli, BE1121STRAIN, read-out: MIC Escherichia coli BE1121.
For assay [6], the system named is Staphylococcus aureus 209P strain. Description: MIC for Staphylococcus aureus 209P strain. Particulars: Staphylococcus aureus, read-out: MIC Straphyrococcus aureus 209P.
Assay [7] has as its system Escherichia coli K-12 strain. As to the kind of experiment: MIC for Escherichia coli K-12 strain. Particulars: Escherichia coli, K12STRAIN, read-out: MIC Escherichia coli K12.
In assay [8] the test system is Enterococcus faecalis 5038 strain. Description: MIC for Enterococcus faecalis 5038 strain. Particulars: read-out: MIC Enterococcus faecalis 5038.
In assay [9] the test system is Clostridium difficile JCM1296 strain. As to the kind of experiment: microbe, parasite or virus in culture. Particulars: Clostridioides difficile, JCM1296, read-out: MIC Clostridium difficile JCM1296.
Where [10] appears, read: MRSA No. 17, regular bouillon medium, 37° C. overnight, turbidity.
The mark [11] stands for this setting: Smith strain, regular bouillon medium, 37° C. overnight, turbidity.
The mark [12] stands for this setting: NCTC12201 strain (VRE), Heart Infusion Broth medium, 37° C. overnight, turbidity.
Where [13] appears, read: BE1121 strain, regular bouillon medium, 37° C. overnight, turbidity.
Where [14] appears, read: 209P strain, regular bouillon medium, 37° C. overnight, turbidity.
The mark [15] stands for this setting: K-12 strain, regular bouillon medium, 37° C. overnight, turbidity.
Where [16] appears, read: 5038 strain, Heart Infusion Broth medium, 37° C. overnight, turbidity.

Converted amounts (≈) assume the structure as drawn. Like-named read-outs stand apart in the source and are kept apart here.

Regarding `CCCCCOCC(=O)c1c(O)c2ccccc2oc1=O` [B021, 4-hydroxy-3-(pentyloxyacetyl)coumarin], the MIC is 123 µg/mL (≈ 424 µM) in [1] (MRSA); 128 µg/mL (≈ 441 µM) in assay [2]; 64 µg/mL (≈ 220 µM) in [3]; 32 µg/mL (≈ 110 µM) in assay [4]; 16 µg/mL (≈ 55.1 µM) in [5]; 32 µg/mL (≈ 110 µM) in assay [6] (209P). The MIC in assay [7] was found to be 128 µg/mL (≈ 441 µM); in assay [8] (5038STRAIN) it was 32 µg/mL (≈ 110 µM); in [9], 8 µg/mL (≈ 27.6 µM).
Regarding `CCCCCCCCNC(=O)c1c(O)c2cc(F)ccc2oc1=O` [B022, 6-fluoro-3-(octylaminocarbonyl)-4-hydroxycoumarin], the MIC came to 256 µg/mL (≈ 763 µM) in [1] (setting [10]); 128 µg/mL (≈ 382 µM) in assay [2] (setting [11]); 256 µg/mL (≈ 763 µM) in assay [3] (setting [12]); 64 µg/mL (≈ 191 µM) in [4]; 128 µg/mL (≈ 382 µM) in [5] (setting [13]); 128 µg/mL (≈ 382 µM) in [6] (setting [14]). Moreover, the MIC in assay [7] (setting [15]) turned out to be 256 µg/mL (≈ 763 µM); in assay [8] (setting [16]) it was 256 µg/mL (≈ 763 µM); in [9] it was 16 µg/mL (≈ 47.7 µM).
In the case of `CCCCCCCCCCSCC(=O)c1c(O)c2ccccc2oc1=O` [B023], the MIC in [1] (MRSA) is 1 µg/mL (≈ 2.66 µM); in assay [2], 0.25 µg/mL (≈ 0.664 µM); in assay [3] (NCTC12201|VRE), 0.25 µg/mL (≈ 0.664 µM); in assay [4], below 0.125 µg/mL; in assay [5] (setting [13]) it was 2 µg/mL (≈ 5.31 µM); in assay [6] (setting [14]), 1 µg/mL (≈ 2.66 µM). Moreover, the MIC is 256 µg/mL (≈ 680 µM) in [7] (setting [15]), 0.25 µg/mL (≈ 0.664 µM) in assay [8] (5038STRAIN) and below 0.125 µg/mL in [9].
For the compound `CCCCc1ccc(COCC(=O)c2c(O)c3ccccc3oc2=O)cc1` [B024, 3-(4-butylphenylmethoxyl)acetyl-4-hydroxycoumarin], the MIC in assay [1] (MRSA) was 64 µg/mL (≈ 175 µM); in assay [2], 8 µg/mL (≈ 21.8 µM); in [3], 2 µg/mL (≈ 5.46 µM); in assay [4] it was 1 µg/mL (≈ 2.73 µM); in [5] (setting [13]), 2 µg/mL (≈ 5.46 µM); in assay [6] (setting [14]), 4 µg/mL (≈ 10.9 µM). The MIC in assay [7] (setting [15]) was 256 µg/mL (≈ 699 µM); in assay [8] (5038STRAIN), 2 µg/mL (≈ 5.46 µM); in [9] it was 0.25 µg/mL (≈ 0.682 µM).
With `CCCCCCCCCCCCNC(=O)c1c(O)c2ccccc2oc1=O` [B025, 3-(dodecylaminocarbonyl)-4-hydroxycoumarin], the MIC in assay [1] (setting [10]) is 8 µg/mL (≈ 21.4 µM); in assay [2] (setting [11]) it was 2 µg/mL (≈ 5.35 µM); in assay [3] (setting [12]), 1 µg/mL (≈ 2.68 µM); in assay [4], 4 µg/mL (≈ 10.7 µM); in assay [5] (setting [13]), 256 µg/mL (≈ 685 µM); in assay [6] (setting [14]), 8 µg/mL (≈ 21.4 µM). Moreover, the MIC worked out at 256 µg/mL (≈ 685 µM) in assay [7] (setting [15]), 2 µg/mL (≈ 5.35 µM) in assay [8] (setting [16]) and 4 µg/mL (≈ 10.7 µM) in [9].
On to `CCCCCCCCCCSCC(=O)c1c(O)c2cc(F)ccc2oc1=O` [B027], for which the MIC in assay [1] (MRSA) is 1 µg/mL (≈ 2.53 µM); in assay [2], 0.25 µg/mL (≈ 0.634 µM); in assay [3] (NCTC12201|VRE), below 0.125 µg/mL; in assay [4] it was 0.25 µg/mL (≈ 0.634 µM); in assay [5] (setting [13]), 4 µg/mL (≈ 10.1 µM); in assay [6] (setting [14]) it was 2 µg/mL (≈ 5.07 µM). For the same compound, the MIC is 256 µg/mL (≈ 649 µM) in [7] (setting [15]), 0.25 µg/mL (≈ 0.634 µM) in [8] (5038STRAIN) and below 0.125 µg/mL in [9].
For `CCCCCCCCCCOCC(=O)c1c(O)c2cc(Cl)ccc2oc1=O` [B028, 3-decyloxyacetyl-6-chloro-4-hydroxycoumarin], the MIC is 256 µg/mL (≈ 648 µM) in assay [1] (setting [10]); 8 µg/mL (≈ 20.3 µM) in assay [2] (setting [11]); 256 µg/mL (≈ 648 µM) in assay [3] (setting [12]); 0.25 µg/mL (≈ 0.633 µM) in assay [4]; 256 µg/mL (≈ 648 µM) in assay [5] (setting [13]); 128 µg/mL (≈ 324 µM) in assay [6] (setting [14]). In addition, the MIC in [7] (setting [15]) amounted to 256 µg/mL (≈ 648 µM); in assay [8] (setting [16]), 256 µg/mL (≈ 648 µM); in [9] it was 0.25 µg/mL (≈ 0.633 µM).
Turning to `CCCCCCCCCCOCC(=O)c1c(O)c2cc(C)ccc2oc1=O` [B029, 3-decyloxyacetyl-6-methyl-4-hydroxycoumarin], the MIC in assay [1] (setting [10]) was 256 µg/mL (≈ 684 µM); in assay [2] (setting [11]), 4 µg/mL (≈ 10.7 µM); in [3] (setting [12]), 2 µg/mL (≈ 5.34 µM); in assay [4], below 0.125 µg/mL; in assay [5] (setting [13]) it was 256 µg/mL (≈ 684 µM); in assay [6] (setting [14]) it was 256 µg/mL (≈ 684 µM). For the same compound, the MIC in assay [7] (setting [15]) is 256 µg/mL (≈ 684 µM); in assay [8] (setting [16]) it was 8 µg/mL (≈ 21.4 µM); in [9] it was below 0.125 µg/mL.
Consider `CCCCCCCCOCC(=O)c1c(O)c2ccccc2oc1=O` [B030, 3-octyloxyacetyl-4-hydroxycoumarin], for which the MIC in [1] (MRSA) was found to be 1 µg/mL (≈ 3.01 µM); in [2], 2 µg/mL (≈ 6.02 µM); in [3], 4 µg/mL (≈ 12 µM); in assay [4] it was 0.25 µg/mL (≈ 0.752 µM); in assay [5] (setting [13]) it was 2 µg/mL (≈ 6.02 µM); in assay [6] (setting [14]) it was 4 µg/mL (≈ 12 µM). For the same compound, the MIC in assay [7] (setting [15]) came to 128 µg/mL (≈ 385 µM); in assay [8] (5038STRAIN), 2 µg/mL (≈ 6.02 µM); in [9] it was 0.25 µg/mL (≈ 0.752 µM).

The values above are taken from US9512075B2 (OKAYAMA UNIVERSITY, priority 2012, dated 2016).
